Substitutions are numbered along the chain they refer to. Values joined by “and” are separate entries in the source; they are usually repeats but may differ in a detail not shown here. Equal entries are not always repeated.
Legend:
[1] = target: T1, PfCRT^Dd2_G353V (Plasmodium falciparum, UniProt Q8IBZ9, A220S/G353V/I356T/K76T/M74I/N326S/N75E/Q271E/R371I); assay: Verapamil inhibition of PfCRT-mediated CQ and PPQ transport in oocytes, PfCRT^Dd2_G353V; assay type: cell-based; settings: individual replicates (S3 Fig)
T1 construct: expressed in transfected cells; host or cells: Xenopus laevis oocytes injected with in vitro transcribed RNA (pSP64T)
T1 sequence (Q8IBZ9 1-424 M74I/N75E/K76T/A220S/Q271E/N326S/G353V/I356T/R371I): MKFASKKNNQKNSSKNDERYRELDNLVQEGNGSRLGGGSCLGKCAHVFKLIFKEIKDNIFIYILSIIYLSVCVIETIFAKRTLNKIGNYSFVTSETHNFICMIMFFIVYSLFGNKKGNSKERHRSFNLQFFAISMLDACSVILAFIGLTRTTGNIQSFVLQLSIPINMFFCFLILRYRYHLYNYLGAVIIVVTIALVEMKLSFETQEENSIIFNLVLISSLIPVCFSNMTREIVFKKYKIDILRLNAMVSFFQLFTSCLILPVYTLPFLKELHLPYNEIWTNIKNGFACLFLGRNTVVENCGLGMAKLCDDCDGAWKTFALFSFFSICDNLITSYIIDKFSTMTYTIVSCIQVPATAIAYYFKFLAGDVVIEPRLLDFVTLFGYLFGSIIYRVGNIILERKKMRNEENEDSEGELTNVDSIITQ
Protocol: In all cases, the PfCRT-mediated CQ and PPQ transport was inhibited in the presence of 100 μM verapamil (S3 Fig).
Drug transport assays were performed as previously described. Briefly, measurements of radiolabeled drug uptake were made over 1 h, unless otherwise specified. […] Where specified, one or more unlabeled drugs were also present at the indicated concentrations. The direction of drug transport in the assays is from the extracellular medium (pH 6) into the oocyte cytosol (pH 7.2), which corresponds to the efflux of CQ or PPQ from the acidic digestive vacuole (pH 5.2) into the parasite cytosol (pH 7.2). The uptake assays were terminated by removing the oocytes from the reaction medium and washing them three times with 2 mL of ice-cold ND96 buffer. Each oocyte was transferred to a separate scintillation vial and lysed by the addition of 200 μL of a 5% SDS solution. The radioactivity in the sample was measured using a liquid scintillation analyser Tri-Carb 4910 TR (PerkinElmer). Water-injected oocytes were analyzed in parallel as a negative control. The buffer from each condition was measured in duplicate in parallel to each experiment to transform counts per minute into pmol of drug. Drug uptake attributable to PfCRT was determined by subtracting the background uptake from water-injected oocytes from that of PfCRT-expressing oocytes. In all cases, at least three independent experiments were performed on oocytes from different frogs, and for each condition in an experiment, measurements were made from 10 oocytes per treatment.
Supplementary file ppat.1011436.s006.tif: S3 Fig Verapamil inhibits PfCRT-mediated transport of CQ and PPQ. […] Left panels, data is shown as individual biological replicates (coloured symbols) overlaid onto bars representing the Mean ± S.E.M. (error bars). A one-tailed Student’s t-test was performed between untreated (no VP) and treated (+ 100 μM VP) samples, and the obtained p values are shown. Right panels, the uptake in VP-treated samples was divided by the uptake in their corresponding untreated pairs and subtracted from 100% to get the percentage of uptake inhibition mediated by the presence of 100 μM verapamil in the extracellular medium. Error bars are S.E. (TIF) Click here for additional data file.

[2] = target: T2, PfCRT^Dd2_I260A (Plasmodium falciparum, UniProt Q8IBZ9, A220S/I260A/I356T/K76T/M74I/N326S/N75E/Q271E/R371I); assay: PfCRT-mediated CQ transport in oocytes expressing PfCRT^Dd2_I260A; assay type: cell-based; settings: S6 Fig; per biological replicate
T2 construct: expressed in transfected cells; host or cells: Xenopus laevis oocytes
T2 sequence (Q8IBZ9 1-424 M74I/N75E/K76T/A220S/I260A/Q271E/N326S/I356T/R371I): T1 sequence (Q8IBZ9 1-424 M74I/N75E/K76T/A220S/Q271E/N326S/G353V/I356T/R371I) with I260A, V353G
Source text: The docking results reflect the differences in the experimentally measured affinities of the two compounds for PfCRT^Dd2, with CQ having less favorable docking scores compared to PPQ (S1 Table). […] In this pose, CQ forms polar contacts via the two positively charged nitrogens: the nitrogen of the diethylamino tail makes a salt bridge with E75 on TM1 and the nitrogen of the 4-amminoquinoline ring makes a hydrogen bond with S257 on TM7. Hydrophobic contacts are established by the quinoline ring with I260, V141, and F145.
Drug transport assays were performed as previously described. Briefly, measurements of radiolabeled drug uptake were made over 1 h, unless otherwise specified. […] Where specified, one or more unlabeled drugs were also present at the indicated concentrations. […] The radioactivity in the sample was measured using a liquid scintillation analyser Tri-Carb 4910 TR (PerkinElmer). Water-injected oocytes were analyzed in parallel as a negative control. The buffer from each condition was measured in duplicate in parallel to each experiment to transform counts per minute into pmol of drug. Drug uptake attributable to PfCRT was determined by subtracting the background uptake from water-injected oocytes from that of PfCRT-expressing oocytes. […]

[3] = test system: Dd2^Dd2crt parasites; design: method as in Okombo et al. (2022); settings: ref Okombo et al. (2022); cited from earlier work
[4] = test system: Dd2^3D7crt parasites; design: method as in Okombo et al. (2022); settings: ref Okombo et al. (2022); cited from earlier work

Q: Which “PfCRTDd2_G353V-mediated CQ transport” value ([1]; 50 µM CQ + 100 µM VP) does the source give for CCN(CC)CCCC(C)Nc1ccnc2cc(Cl)ccc12 (stereo not shown) [CQ, chloroquine] here?
A: 3.530 pmol oocyte-1 h-1 and 3.520 pmol oocyte-1 h-1 and 2.870 pmol oocyte-1 h-1 and 2.520 pmol oocyte-1 h-1 and 3.380 pmol oocyte-1 h-1

Q: And the “PfCRTDd2_G353V-mediated CQ transport” value ([1]; 50 µM CQ)?
A: 4.740 pmol oocyte-1 h-1 and 5.010 pmol oocyte-1 h-1 and 2.880 pmol oocyte-1 h-1 and 3.920 pmol oocyte-1 h-1 and 4.760 pmol oocyte-1 h-1

Q: And the “PfCRTDd2_I260A-mediated CQ transport” value [2]?
A: 2.260 pmol oocyte-1 h-1 and 2.400 pmol oocyte-1 h-1 and 3.540 pmol oocyte-1 h-1

Q: Which “PfCRTDd2_G353V-mediated PPQ transport” value ([1]; 50 µM PPQ + 100 µM VP) does the source give for Clc1ccc2c(N3CCN(CCCN4CCN(c5ccnc6cc(Cl)ccc56)CC4)CC3)ccnc2c1 [PPQ, piperaquine] here?
A: 18.21 pmol oocyte-1 h-1 and 25.90 pmol oocyte-1 h-1 and 37.78 pmol oocyte-1 h-1 and 29.33 pmol oocyte-1 h-1 and 30.34 pmol oocyte-1 h-1

Q: What about the “PfCRTDd2_G353V-mediated PPQ transport” value ([1]; 50 µM PPQ) of the same molecule?
A: 29.38 pmol oocyte-1 h-1 and 45.38 pmol oocyte-1 h-1 and 21.36 pmol oocyte-1 h-1 and 40.00 pmol oocyte-1 h-1 and 56.34 pmol oocyte-1 h-1 and 56.46 pmol oocyte-1 h-1 and 95.52 pmol oocyte-1 h-1 and 62.83 pmol oocyte-1 h-1

Q: What about the drug accumulation ratio [3] of the same molecule?
A: 1900 fold

Q: What about the drug accumulation ratio [4] of the same molecule?
A: 2000 fold

Reference: publication PMC10281575, “PfCRT mutations conferring piperaquine resistance in falciparum malaria shape the kinetics of quinoline drug binding and transport” (PLOS Pathogens, 2023)
